Assay results from EPA's ToxValDB 9.5.

Test system: Rattus norvegicus
Settings: subchronic; oral; diet; M; Fischer 344; Body Weight Changes: decrease + Blood Chemistry: Alp increase, Bile acid increase, ALT increase, SDH increase + Absolute Organ Weight: Liver…

SMILES: Cc1cccc(Nc2cc(Cl)nc(SCC(=O)O)n2)c1C [[4-Chloro-6-(2,3-xylidino)-2-pyrimidinylthio]acetic acid]
- NOEL: < 0.48 mg/kg-day
